Test system: MF CD34+ cells
Assay: Clonal assays of MF CD34+ cells; JAK2V617F allele status of picked hematopoietic colonies
Type: cell-based, human
Protocol: Individual hematopoietic colonies were randomly picked from clonal assays of CD34^+ cells from 6 MF cases and the JAK2V617F allele status was determined.
IL-8 alone increased the absolute numbers of JAK2V617F+ colonies, and the addition of Ladarixin reduced the numbers of JAK2V617F positive colonies stimulated by IL-8 (Tables 1-3).

[1] = MF1 CD34+ cells, ladarixin 10 μM + IL-8 10 ng
[2] = MF1 CD34+ cells, ladarixin 10 μM + IL-8 20 ng
[3] = MF1 CD34+ cells, ladarixin 10 μM + IL-8 50 ng
[4] = MF1 CD34+ cells, ladarixin 10 μM + IL-8 100 ng
[5] = MF1 CD34+ cells, ladarixin 10 μM, no IL-8
[6] = MF1 CD34+ cells, ladarixin 20 μM + IL-8 20 ng
[7] = MF1 CD34+ cells, ladarixin 20 μM, no IL-8
[8] = MF2 CD34+ cells, ladarixin 10 μM + IL-8 10 ng
[9] = MF2 CD34+ cells, ladarixin 10 μM + IL-8 20 ng
[10] = MF2 CD34+ cells, ladarixin 10 μM + IL-8 50 ng
[11] = MF2 CD34+ cells, ladarixin 10 μM + IL-8 100 ng
[12] = MF2 CD34+ cells, ladarixin 10 μM, no IL-8
[13] = MF2 CD34+ cells, ladarixin 20 μM + IL-8 20 ng
[14] = MF2 CD34+ cells, ladarixin 20 μM, no IL-8
[15] = MF3 CD34+ cells, ladarixin 10 μM + IL-8 10 ng
[16] = MF3 CD34+ cells, ladarixin 10 μM + IL-8 20 ng
[17] = MF3 CD34+ cells, ladarixin 10 μM + IL-8 50 ng
[18] = MF3 CD34+ cells, ladarixin 10 μM + IL-8 100 ng
[19] = MF3 CD34+ cells, ladarixin 10 μM, no IL-8
[20] = MF3 CD34+ cells, ladarixin 20 μM + IL-8 20 ng
[21] = MF3 CD34+ cells, ladarixin 20 μM, no IL-8
[22] = MF4 CD34+ cells, ladarixin 10 μM + IL-8 10 ng

C[C@@H](C(=O)NS(C)(=O)=O)c1ccc(OS(=O)(=O)C(F)(F)F)cc1 [Ladarixin, R(-)-2-[(4′-trifluoromethanesulfonyloxy)phenyl]-N-methanesulfonyl propionamide]
number of colonies, Heter (JAK2V617F heterozygous) [1]: 54
number of colonies, Homo (JAK2V617F homozygous) [1]: 8
number of colonies, WT (JAK2 wild type) [1]: 0
number of colonies, Heter (JAK2V617F heterozygous) [2]: 56
number of colonies, Homo (JAK2V617F homozygous) [2]: 4
number of colonies, WT (JAK2 wild type) [2]: 4
number of colonies, Heter (JAK2V617F heterozygous) [3]: 62
number of colonies, Homo (JAK2V617F homozygous) [3]: 5
number of colonies, WT (JAK2 wild type) [3]: 0
number of colonies, Heter (JAK2V617F heterozygous) [4]: 58
number of colonies, Homo (JAK2V617F homozygous) [4]: 8
number of colonies, WT (JAK2 wild type) [4]: 0
number of colonies, Heter (JAK2V617F heterozygous) [5]: 49
number of colonies, Homo (JAK2V617F homozygous) [5]: 4
number of colonies, WT (JAK2 wild type) [5]: 0
number of colonies, Heter (JAK2V617F heterozygous) [6]: 49
number of colonies, Homo (JAK2V617F homozygous) [6]: 4
number of colonies, WT (JAK2 wild type) [6]: 9
number of colonies, Heter (JAK2V617F heterozygous) [7]: 43
number of colonies, Homo (JAK2V617F homozygous) [7]: 0
number of colonies, WT (JAK2 wild type) [7]: 16
number of colonies, Heter (JAK2V617F heterozygous) [8]: 0
number of colonies, Homo (JAK2V617F homozygous) [8]: 0
number of colonies, WT (JAK2 wild type) [8]: 49
number of colonies, Heter (JAK2V617F heterozygous) [9]: 3
number of colonies, Homo (JAK2V617F homozygous) [9]: 0
number of colonies, WT (JAK2 wild type) [9]: 35
number of colonies, Heter (JAK2V617F heterozygous) [10]: 0
number of colonies, Homo (JAK2V617F homozygous) [10]: 0
number of colonies, WT (JAK2 wild type) [10]: 44
number of colonies, Heter (JAK2V617F heterozygous) [11]: 0
number of colonies, Homo (JAK2V617F homozygous) [11]: 0
number of colonies, WT (JAK2 wild type) [11]: 46
number of colonies, Heter (JAK2V617F heterozygous) [12]: 0
number of colonies, Homo (JAK2V617F homozygous) [12]: 0
number of colonies, WT (JAK2 wild type) [12]: 36
number of colonies, Heter (JAK2V617F heterozygous) [13]: 0
number of colonies, Homo (JAK2V617F homozygous) [13]: 0
number of colonies, WT (JAK2 wild type) [13]: 47
number of colonies, Heter (JAK2V617F heterozygous) [14]: 0
number of colonies, Homo (JAK2V617F homozygous) [14]: 0
number of colonies, WT (JAK2 wild type) [14]: 44
number of colonies, Heter (JAK2V617F heterozygous) [15]: 110
number of colonies, Homo (JAK2V617F homozygous) [15]: 17
number of colonies, WT (JAK2 wild type) [15]: 8
number of colonies, Heter (JAK2V617F heterozygous) [16]: 17
number of colonies, Homo (JAK2V617F homozygous) [16]: 69
number of colonies, WT (JAK2 wild type) [16]: 51
number of colonies, Heter (JAK2V617F heterozygous) [17]: 50
number of colonies, Homo (JAK2V617F homozygous) [17]: 67
number of colonies, WT (JAK2 wild type) [17]: 34
number of colonies, Heter (JAK2V617F heterozygous) [18]: 0
number of colonies, Homo (JAK2V617F homozygous) [18]: 109
number of colonies, WT (JAK2 wild type) [18]: 49
number of colonies, Heter (JAK2V617F heterozygous) [19]: 13
number of colonies, Homo (JAK2V617F homozygous) [19]: 73
number of colonies, WT (JAK2 wild type) [19]: 13
number of colonies, Heter (JAK2V617F heterozygous) [20]: 0
number of colonies, Homo (JAK2V617F homozygous) [20]: 70
number of colonies, WT (JAK2 wild type) [20]: 53
number of colonies, Heter (JAK2V617F heterozygous) [21]: 28
number of colonies, Homo (JAK2V617F homozygous) [21]: 49
number of colonies, WT (JAK2 wild type) [21]: 35
number of colonies, Heter (JAK2V617F heterozygous) [22]: 137
number of colonies, Homo (JAK2V617F homozygous) [22]: 0
